Columns and labels:
[1] = tested on: db/db mice; experiment: Oral glucose tolerance test; format: in vivo; conditions: fasted db/db mice, 2 g/kg glucose orally 30 minutes after substance
Protocol: Fasted db/db mice 7 to 9 weeks old (Janvier, France) are weighed and blood is taken from the tip of the tail. This blood is used for the first measurement of glucose on the basis of which the animals are randomised and divided into groups. The test substance to be tested may be given either orally or i.p. as a suspension in 0.5% Natrosol. 30 minutes after the administration of the substance the animals are given orally 2 g/kg glucose in a volume of 0.1 ml/100 g body weight dissolved in NaCl solution. Subsequently, the glucose values are determined from the tail blood using a glucometer (Ultra OneTouch, Lifescan) at specific time intervals [30, 60, 120 and 180 minutes after oral administration of the glucose].

[2] = tested on: mice; experiment: Tolerability after oral administration to mice; format: in vivo; conditions: oral administration of 10 mg/kg to mice

CC(=O)c1ccc2c(c1)/C(=C(/Nc1ccc(CN(C)C)cc1)c1ccc3c(c1)OCCO3)C(=O)N2 [Example 1.051, 5-acetyl-3-{[4-(dimethylamino-methyl)-phenylamino]-(2,3-dihydro-benzo[1,4]-dioxin-6-yl)-methylidene}-2-indolinone]
activity in the oral glucose tolerance test [1]: significant activity
changes in the animals' behaviour [2]: no changes were observed

Reference: US7176231B2, “Aryl-containing 5-acylindolinones, the preparation thereof and their use as medicaments” (Boehringer Ingelheim International GmbH, priority 2004, dated 2007)
